Assay results taken from article PMC10945555, “Improving Activity of New Arylurea Agents against Multidrug-Resistant and Biofilm-Producing Staphylococcus epidermidis” (ACS Medicinal Chemistry Letters, 2024).
Converted amounts (≈) assume the structure as drawn.

Columns and labels:
[1] = system: H9c2 cells; experiment: Cytotoxicity, MTT assay, cardiomyocytes; assay type: cell-based; settings: Rattus norvegicus, 24 h, n = 3
Experimental: (§1) The following cell models were used in the research: rat cardiomyocytes (H9c2 line) and human skin fibroblasts (BJ line). All cell lines used in the work are commercially available and were purchased from ATCC banks (the American Type Culture Collection, Manassas, VI, USA). Cell cultures were carried out in an incubator under standard conditions (37°C, 5% CO 2).
(§2) Culture media (Dulbecco's Modified Eagle's Medium -DMEM (H9c2) and Eagle's Minimum Essential Medium-EMEM (BJ) were supplemented with 10% bovine serum and a 1% mixture of penicillin and streptomycin antibiotics. […]
(§3) doxorubicin (a cytotoxic drug) were used as reference and positive control, respectively. […]
(§4) incubated with studied compound in appropriate concentration for next 24 h. Then MTT solution (5 mg/mL) was transferred into culture medium of incubated cells. After 3 h, once dark crystals of formazan were produced in cells, medium was aspirated and 100 μ L of DMSO was added to dissolve formazan. Absorbance of DMSO solution was read on a multiwell plate reader (Spectra Max iD3, Molecular Devices) at 570 nm. In order to determine viability, absorbance of experimental wells was divided by absorbance of contro l well (not treated) and multiplied by 100 (%). Three separate experiments were performed. IC 50 was calculated using non-linear regression method in OriginPro software. […]

[2] = system: biofilm-producing Staphylococcus epidermidis strains; experiment: Inhibition of biofilm formation (MBIC, resazurin); assay type: cell-based
Experimental: After 24 hours incubation each well of
concentration of 4 mg/mL was added. […]

[3] = system: Staphylococcus epidermidis ATCC 35984; experiment: MIC, broth microdilution, MDR/BPSE reference strain; assay type: cell-based; settings: Staphylococcus epidermidis, ATCC35984, read-out: MIC MDR/BPSE, Staphylococcus epidermidis ATCC 35984
Description: (§5) These strains included susceptible, multidrug-resistant, and biofilm-producing strains of S. epidermidis and S. aureus (MSSE, MDR/BPSE, and MDR/BPSA, respectively). The cornerstone antibiotic linezolid served as a positive control (Table 1). The impact of structural modifications at the aryloxy fragment and the aromatic moiety bound to the propyl linker on the inhibitory activity was initially investigated. […] Further optimization focused on evaluating the impact of the type of substituent and its position on the arylsulfonamide fragment’s activity.
(§6) 2 Biological assay protocols
(§7) Microbiological tests were carried out under aseptic conditions in a laminar chamber of the 2nd […]
(§8) (BioTectum 1.2, Alchem Poland). The assessment of antimicrobial activity was carried out for final compounds in the form of free bases, soluble in DMSO (Merck, Germany), at the initial […]
(§9) concentration of 1 mg/mL. […]
(§10) were provided by Cayman Chemical, USA.
(§11) The activity of all newly synthesized compounds was tested in vitro on a panel of selected reference strains from the American Type Culture Collection (ATCC) of Gram-positive […]
(§12) 2.2 Effect of evaluated compounds on planktonic cells
(§13) The susceptibility of three reference bacterial strains (Staphylococcus epidermidis ATCC […]
(§14) Table S1) and 81 clinical MDR S. epidermidis (Table S2) to the tested compounds was assessed by determining the MIC value (Minimal Inhibitory Concentration) by microdilution in a liquid medium in 96-well flat-bottom cell culture plates (Nest Biotechnology Scientific, USA). The antibacterial properties of the compo unds were tested in the concentration range from 50 µg/mL to 0.1 µg/mL by making a series of double dilutions of the compound in liquid Mueller -Hinton II Broth Cation Adjusted (MHB II, BBL TM, USA) according to the European Committee on […]
(§15) Antimicrobial Susceptibility Testing guidelines (EUCAST).2,3 The determinations were performed twice. The MIC50 and MIC90 values were determined for each of the tested

[4] = system: BJ cells; experiment: Cytotoxicity, MTT assay, skin fibroblasts; assay type: cell-based, human; settings: Homo sapiens, MTT, 24 h, n = 3
Experimental: as §1, §2, §3
as §4, with “solution” for “incubated with studied compound in appropriate concentration for next 24 h. Then MTT solution”

[5] = system: Staphylococcus epidermidis ATCC 12228; experiment: MIC, broth microdilution, MSSE reference strain; assay type: cell-based; settings: ATCC12228, Staphylococcus epidermidis ATCC 12228, read-out: MIC MSSE
Description: as §5, §6, §7, §8, §9, §10, §11, §12, §13, §14, §15

[6] = S. epidermidis ATCC 35984 (Table S4)
[7] = clinical strain 25 (Table S4, Figure 2)

For `O=S(=O)(NC1CCN(CCC(Oc2ccc(C(F)(F)F)cc2)c2cccs2)CC1)c1cccc(Cl)c1` (stereo not drawn) [Compound 14], the IC50 [1] was 28 µg/mL (≈ 50.1 µM), the MBIC [2, 6] was 31.25 µg/mL and the MBIC50 ([2]; Table S4 strains) was 125 µg/mL. It also gave an MBIC ([2]; clinical strain 1 (Table S4)) of 31.25 µg/mL, an MBIC ([2]; clinical strain 2 (Table S4)) of 125 µg/mL and an MBIC ([2]; clinical strain 3 (Table S4)) of 125 µg/mL. It also gave an MBIC ([2]; clinical strain 4 (Table S4)) of 125 µg/mL, an MBIC ([2]; clinical strain 5 (Table S4)) of 62.5 µg/mL and an MBIC ([2]; clinical strain 6 (Table S4)) of 125 µg/mL. The MBIC ([2]; clinical strain 7 (Table S4)) was 125 µg/mL, the MBIC ([2]; clinical strain 8 (Table S4)) was 15.6 µg/mL and the MBIC ([2]; clinical strain 9 (Table S4)) was 125 µg/mL. For the same molecule, the MBIC ([2]; clinical strain 11 (Table S4)) was 125 µg/mL, the MBIC ([2]; clinical strain 12 (Table S4)) was 125 µg/mL and the MBIC ([2]; clinical strain 13 (Table S4)) was 62.5 µg/mL. For the same molecule, the MBIC ([2]; clinical strain 15 (Table S4)) was 125 µg/mL, the MBIC ([2]; clinical strain 16 (Table S4)) was 31.25 µg/mL and the MBIC ([2]; clinical strain 17 (Table S4)) was 62.5 µg/mL. It also gave an MBIC ([2]; clinical strain 19 (Table S4)) of 31.25 µg/mL, an MBIC ([2]; clinical strain 21 (Table S4)) of 125 µg/mL and an MBIC ([2]; clinical strain 22 (Table S4)) of 125 µg/mL. It also gave an MBIC ([2]; clinical strain 23 (Table S4)) of 7.8 µg/mL, an MBIC [2, 7] of 31.25 µg/mL and an MBIC ([2]; clinical strain 26 (Table S4)) of 125 µg/mL. It also gave an MBIC ([2]; clinical strain 27 (Table S4)) of 250 µg/mL, an MBIC ([2]; clinical strain 28 (Table S4)) of 62.5 µg/mL and an MBIC ([2]; clinical strain 29 (Table S4)) of 62.5 µg/mL. The MBIC ([2]; clinical strain 30 (Table S4)) was 62.5 µg/mL, the MBIC ([2]; clinical strain 33 (Table S4)) was 125 µg/mL and the MBIC ([2]; clinical strain 35 (Table S4)) was 125 µg/mL. It also gave an MBIC ([2]; clinical strain 36 (Table S4)) of 62.5 µg/mL, an MBIC ([2]; clinical strain 37 (Table S4)) of 125 µg/mL and an MBIC ([2]; clinical strain 39 (Table S4)) of 15.6 µg/mL. For the same molecule, the MBIC ([2]; clinical strain 40 (Table S4)) was 31.25 µg/mL, the MBIC ([2]; clinical strain 41 (Table S4)) was 125 µg/mL and the MBIC ([2]; clinical strain 42 (Table S4)) was 125 µg/mL. For the same molecule, the MBIC ([2]; clinical strain 43 (Table S4)) was 250 µg/mL, the MBIC ([2]; clinical strain 44 (Table S4)) was 62.5 µg/mL and the MBIC ([2]; clinical strain 45 (Table S4)) was 125 µg/mL. The MBIC ([2]; clinical strain 46 (Table S4)) was 125 µg/mL, the MBIC ([2]; clinical strain 47 (Table S4)) was 62.5 µg/mL and the MBIC ([2]; clinical strain 49 (Table S4)) was 31.25 µg/mL. The MBIC ([2]; clinical strain 51 (Table S4)) was 125 µg/mL, the MBIC ([2]; clinical strain 55 (Table S4)) was 125 µg/mL and the MBIC ([2]; clinical strain 58 (Table S4)) was 125 µg/mL. The MBIC ([2]; clinical strain 59 (Table S4)) was 125 µg/mL, the MBIC ([2]; clinical strain 65 (Table S4)) was 125 µg/mL and the MBIC ([2]; clinical strain 66 (Table S4)) was 125 µg/mL. It also gave an MBIC ([2]; clinical strain 67 (Table S4)) of 125 µg/mL, an MBIC ([2]; clinical strain 70 (Table S4)) of 125 µg/mL and an MBIC ([2]; clinical strain 73 (Table S4)) of 31.25 µg/mL. For the same molecule, the MBIC ([2]; clinical strain 74 (Table S4)) was 125 µg/mL, the MBIC ([2]; clinical strain 75 (Table S4)) was 31.25 µg/mL and the MBIC ([2]; clinical strain 78 (Table S4)) was 15.6 µg/mL. It also gave an MBIC ([2]; clinical strain 79 (Table S4)) of 31.25 µg/mL, an MIC [3] of at most 0.8 µg/mL and an IC50 [4] of 9.9 µg/mL (≈ 17.7 µM).
Molecule `O=S(=O)(NC1CCN(CCC(Oc2ccc(C(F)(F)F)cc2)c2cccs2)CC1)c1cccc(Br)c1` (stereo not drawn) [Compound 18] has an MIC [3] of at most 0.8 µg/mL.
Molecule `O=S(=O)(NC1CCN(CCC(Oc2ccc(C(F)(F)F)cc2)c2cccs2)CC1)c1cccc(C(F)(F)F)c1` (stereo not drawn) [Compound 21] has an MIC [5] of at most 6.25 µg/mL.
`CC(=O)NC[C@H]1CN(c2ccc(N3CCOCC3)c(F)c2)C(=O)O1` [linezolid, reference compound] gave an IC50 [1] of 16.9 µg/mL (≈ 50.1 µM), an MBIC [2, 6] of 15.6 µg/mL and an MBIC50 ([2]; Table S4 strains) of 25 µg/mL. For the same molecule, the MBIC90 ([2]; Table S4 strains) was 50 µg/mL, the MBIC ([2]; clinical strain 1 (Table S4)) was 15.6 µg/mL and the MBIC ([2]; clinical strain 2 (Table S4)) was 50 µg/mL. For the same molecule, the MBIC ([2]; clinical strain 3 (Table S4)) was 50 µg/mL, the MBIC ([2]; clinical strain 4 (Table S4)) was 50 µg/mL and the MBIC ([2]; clinical strain 5 (Table S4)) was 15.6 µg/mL. The MBIC ([2]; clinical strain 6 (Table S4)) was 15.6 µg/mL, the MBIC ([2]; clinical strain 7 (Table S4)) was 50 µg/mL and the MBIC ([2]; clinical strain 8 (Table S4)) was 12.5 µg/mL. It also gave an MBIC ([2]; clinical strain 9 (Table S4)) of 50 µg/mL, an MBIC ([2]; clinical strain 11 (Table S4)) of 50 µg/mL and an MBIC ([2]; clinical strain 12 (Table S4)) of 50 µg/mL. It also gave an MBIC ([2]; clinical strain 13 (Table S4)) of 6.25 µg/mL, an MBIC ([2]; clinical strain 15 (Table S4)) of 50 µg/mL and an MBIC ([2]; clinical strain 16 (Table S4)) of 15.6 µg/mL. It also gave an MBIC ([2]; clinical strain 17 (Table S4)) of 25 µg/mL, an MBIC ([2]; clinical strain 19 (Table S4)) of 25 µg/mL and an MBIC ([2]; clinical strain 21 (Table S4)) of 50 µg/mL. It also gave an MBIC ([2]; clinical strain 22 (Table S4)) of 50 µg/mL, an MBIC ([2]; clinical strain 23 (Table S4)) of 12.5 µg/mL and an MBIC [2, 7] of 12.5 µg/mL. It also gave an MBIC ([2]; clinical strain 26 (Table S4)) of 50 µg/mL, an MBIC ([2]; clinical strain 27 (Table S4)) of 50 µg/mL and an MBIC ([2]; clinical strain 28 (Table S4)) of 25 µg/mL. For the same molecule, the MBIC ([2]; clinical strain 29 (Table S4)) was 25 µg/mL, the MBIC ([2]; clinical strain 30 (Table S4)) was 6.25 µg/mL and the MBIC ([2]; clinical strain 33 (Table S4)) was 50 µg/mL. The MBIC ([2]; clinical strain 35 (Table S4)) was 50 µg/mL, the MBIC ([2]; clinical strain 36 (Table S4)) was 25 µg/mL and the MBIC ([2]; clinical strain 37 (Table S4)) was 50 µg/mL. For the same molecule, the MBIC ([2]; clinical strain 39 (Table S4)) was 6.25 µg/mL, the MBIC ([2]; clinical strain 40 (Table S4)) was 25 µg/mL and the MBIC ([2]; clinical strain 41 (Table S4)) was 50 µg/mL. The MBIC ([2]; clinical strain 42 (Table S4)) was 50 µg/mL, the MBIC ([2]; clinical strain 43 (Table S4)) was 25 µg/mL and the MBIC ([2]; clinical strain 44 (Table S4)) was 25 µg/mL. It also gave an MBIC ([2]; clinical strain 45 (Table S4)) of 50 µg/mL, an MBIC ([2]; clinical strain 46 (Table S4)) of 50 µg/mL and an MBIC ([2]; clinical strain 47 (Table S4)) of 25 µg/mL. For the same molecule, the MBIC ([2]; clinical strain 49 (Table S4)) was 25 µg/mL, the MBIC ([2]; clinical strain 51 (Table S4)) was 50 µg/mL and the MBIC ([2]; clinical strain 55 (Table S4)) was 50 µg/mL. For the same molecule, the MBIC ([2]; clinical strain 58 (Table S4)) was 50 µg/mL, the MBIC ([2]; clinical strain 59 (Table S4)) was 50 µg/mL and the MBIC ([2]; clinical strain 65 (Table S4)) was 50 µg/mL. The MBIC ([2]; clinical strain 66 (Table S4)) was 25 µg/mL, the MBIC ([2]; clinical strain 67 (Table S4)) was 50 µg/mL and the MBIC ([2]; clinical strain 70 (Table S4)) was 50 µg/mL. For the same molecule, the MBIC ([2]; clinical strain 73 (Table S4)) was 15.6 µg/mL, the MBIC ([2]; clinical strain 74 (Table S4)) was 25 µg/mL and the MBIC ([2]; clinical strain 75 (Table S4)) was 25 µg/mL. The MBIC ([2]; clinical strain 78 (Table S4)) was 15.6 µg/mL, the MBIC ([2]; clinical strain 79 (Table S4)) was 15.6 µg/mL and the MIC [3] was 1.6 µg/mL (≈ 4.74 µM). It also gave an MIC [5] of 0.8 µg/mL (≈ 2.37 µM).
